From the supplement of paper PMC8967900

Experiments:
Test in all cases: selective drug sensitivity score (sDSS, relative to normal bone marrow) (sDSS (score)); higher = more potent and effective on the cell line relative to normal bone marrow cells
Details in all cases: 72 h
380 = tested on: 380
ALL-SIL = tested on: ALL-SIL
CCRF-CEM = tested on: CCRF-CEM
CCRF-HSB2 = tested on: CCRF-HSB2
COG-LL-394h = tested on: COG-LL-394h
DND-41 = tested on: DND-41
HAL-01 = tested on: HAL-01
KARPAS-45 = tested on: KARPAS-45
KASUMI-10 = tested on: KASUMI-10
KOPN-8 = tested on: KOPN-8
LC4-1 = tested on: LC4-1
MHH-CALL-2 = tested on: MHH-CALL-2
MHH-CALL-3 = tested on: MHH-CALL-3
MHH-CALL-4 = tested on: MHH-CALL-4
NALL-1 = tested on: NALL-1
P12-ICHIKAWA = tested on: P12-ICHIKAWA
P30-OHKUBO = tested on: P30-OHKUBO
PF-382 = tested on: PF-382
REH = tested on: REH
SEM cells = tested on: SEM cells
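Also: ALL cell lines in 384-well plates, five doses spanning 10,000-fold, each plate scaled between vehicle and 100 µmol/L benzalkonium chloride controls, sDSS an adapted area-under-curve metric.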

| Structure (SMILES) | selective drug sensitivity score 380 | selective drug sensitivity score (ALL-SIL) | selective drug sensitivity score (CCRF-CEM) | selective drug sensitivity score (CCRF-HSB2) | selective drug sensitivity score (COG-LL-394h) | selective drug sensitivity score (DND-41) | selective drug sensitivity score (HAL-01) | selective drug sensitivity score (KARPAS-45) | selective drug sensitivity score (KASUMI-10) | selective drug sensitivity score (KOPN-8) | selective drug sensitivity score (LC4-1) | selective drug sensitivity score (MHH-CALL-2) | selective drug sensitivity score (MHH-CALL-3) | selective drug sensitivity score (MHH-CALL-4) | selective drug sensitivity score (NALL-1) | selective drug sensitivity score (P12-ICHIKAWA) | selective drug sensitivity score (P30-OHKUBO) | selective drug sensitivity score (PF-382) | selective drug sensitivity score (REH) | selective drug sensitivity score (SEM cells) |
| --- | --- | --- | --- | --- | --- | --- | --- | --- | --- | --- | --- | --- | --- | --- | --- | --- | --- | --- | --- | --- |
| Oc1ccc2c(c1)CC[C@H](c1ccccc1)[C@@H]2c1ccc(OCCN2CCCC2)cc1 [Lasofoxifene] (top concentration 1000 nM) | -1.28 | -1.28 | -1.08 | -1.28 | -1.28 | -1.28 | -0.08 | -1.28 | -1.28 | -1.28 | -1.28 | -1.28 | -1.28 | -1.28 | -1.28 | -1.28 | -1.28 | -0.98 | -1.28 | -1.28 |
| CC(C)n1cnc2c(NCCc3ccc(O)cc3)nc(-c3csc4ccccc34)nc21 [StemRegenin_1] (top concentration 10000 nM) | -1.8 | 3.8 | 1.4 | 1.9 | -1.8 | 4.5 | 2.4 | 3.9 | -1.8 | 0.1 | -0.1 | 2.5 | -1.8 | -1.8 | -1.4 | 0.2 | 2.2 | 0.9 | 1.8 | -0.5 |
| COc1cccc(-c2ccc(NC(=O)C3=C(C(=O)O)CCC3)c(F)c2)c1 [Vidofludimus] (top concentration 10000 nM) | 5 | 3.2 | 3.1 | 4 | 0 | 5.3 | 2 | 3.9 | 0.5 | 5.5 | 6.1 | 3 | 0.7 | 2.8 | 1.9 | 6.5 | 3 | 4.8 | 8.9 | 5.6 |
| Cc1ccc(F)c(NC(=O)Nc2ccc(-c3cccc4[nH]nc(N)c34)cc2)c1 [Linifanib] (top concentration 1000 nM) | -1.12 | -1.12 | -1.02 | -1.12 | -1.12 | -0.02 | -1.12 | -1.12 | 6.08 | -1.12 | -1.12 | -1.12 | -1.12 | -1.12 | -1.12 | -1.12 | -1.12 | -1.12 | -1.12 | 1.28 |
| CC/C(=C(\c1ccccc1)c1ccc(OCCN(C)C)cc1)c1ccccc1 [Tamoxifen] (top concentration 10000 nM) | 0.02 | 3.12 | 0.82 | 0.92 | 2.32 | 3.72 | 1.82 | 1.92 | -3.28 | 7.92 | 4.12 | 0.82 | -2.48 | 0.52 | 3.82 | 0.32 | 3.32 | 1.72 | 1.02 | -1.28 |
| CC[C@H](C)C(=O)O[C@H]1C[C@H](O)C=C2C=C[C@H](C)[C@H](CC[C@@H](O)C[C@@H](O)CC(=O)O)[C@H]21 [Pravastatin] (top concentration 10000 nM) | 3.04 | -0.66 | -0.46 | -0.66 | -0.66 | -0.66 | 0.64 | -0.66 | -0.66 | -0.66 | 3.04 | -0.36 | 0.74 | -0.66 | -0.66 | -0.66 | -0.66 | -0.66 | -0.66 | -0.66 |
| C[C@]12CC[C@@H]3c4ccc(O)cc4C[C@@H](CCCCCCCCC[S+]([O-])CCCC(F)(F)C(F)(F)F)[C@H]3[C@@H]1CC[C@@H]2O (stereo not given in full) [Fulvestrant] (top concentration 1000 nM) | 0 | 5.3 | 0 | 0 | 0 | 8.3 | 0 | 0 | 0 | 0 | 0 | 1.5 | 0 | 0 | 1.6 | 0 | 0 | 0 | 0.2 | 0 |
| C=CC(=O)N1CCC(Oc2cc3c(Nc4ccc(Cl)c(Cl)c4F)ncnc3cc2OC)CC1 [Poziotinib] (top concentration 1000 nM) | -0.22 | 3.48 | -0.22 | 3.68 | -0.22 | 2.08 | 1.18 | -0.22 | -0.22 | -0.22 | 0.78 | -0.22 | 3.08 | 0.68 | 3.28 | -0.22 | -0.22 | -0.22 | -0.22 | 3.88 |
| C[C@H]1CNCCCN1S(=O)(=O)c1cccc2cncc(F)c12 [Ripasudil] (top concentration 10000 nM) | 3.28 | 0.78 | -0.12 | 1.58 | -0.22 | -0.22 | -0.22 | 0.88 | -0.22 | 0.88 | -0.22 | -0.02 | -0.22 | 0.18 | -0.22 | 1.18 | -0.22 | -0.22 | -0.22 | -0.22 |
| CNC(=O)c1ccc2cc([C@@]3(O)CCn4cncc43)ccc2c1 [Orteronel] (top concentration 10000 nM) | 1.4 | 0 | 0 | 0 | 0 | 0 | 0 | 0 | 0 | 1 | 4.9 | 0 | 0 | 0 | 0 | 0 | 0 | 0 | 0 | 0 |
| COc1cc2/c(=N/c3ccc(Br)cc3F)nc[nH]c2cc1OCC1CCN(C)CC1 [Vandetanib] (top concentration 1000 nM) | -0.22 | 2.68 | -0.22 | 11.6 | -0.22 | -0.22 | 1.68 | 0.68 | -0.22 | -0.22 | -0.22 | 4.38 | 0.78 | -0.22 | 2.28 | -0.22 | 0.38 | 0.48 | -0.22 | -0.12 |
| COc1cc2c(cc1OCCCN1CCCC1)N=C(N)C21CCC1 [A-366] (top concentration 25000 nM) | -1.84 | -0.34 | 2.16 | 0.16 | 2.06 | 4.56 | -1.84 | 5.16 | 1.46 | -0.64 | -1.24 | -1.14 | -1.84 | -0.34 | -1.84 | -0.84 | 2.56 | -0.84 | 0.36 | 0.46 |
| Cc1cc(C)c(CNC(=O)c2cc(-c3ccc(CN4CCOCC4)cc3)cc3c2cnn3C2CCCC2)c(=O)[nH]1 [EPZ-5687] (top concentration 10000 nM) | -0.36 | -0.36 | 0.14 | -0.06 | -0.36 | -0.36 | 3.24 | -0.26 | -0.36 | -0.36 | -0.36 | 5.14 | -0.36 | -0.36 | 5.34 | -0.36 | 2.24 | -0.36 | 6.64 | -0.36 |
| CCN(CC)CCN(Cc1ccc(-c2ccc(C(F)(F)F)cc2)cc1)C(=O)Cn1c(SCc2ccc(F)cc2)nc(=O)c2c1CCC2 [Darapladib] (top concentration 1000 nM) | -1.42 | -1.42 | -1.42 | -0.52 | -1.42 | -0.72 | 0.58 | -1.32 | -1.22 | 7.18 | -1.42 | 3.68 | -1.42 | 2.68 | 6.18 | -1.42 | 0.68 | -1.22 | -1.42 | -1.42 |
| C[C@@H]1C[C@H]2[C@@H]3CCC4=CC(=O)C=C[C@]4(C)[C@@]3(F)[C@@H](O)C[C@]2(C)[C@@]1(O)C(=O)CO [Dexamethasone] (top concentration 10000 nM) | 32.2 | 18.6 | 13.9 | 18.8 | -1.52 | 36.3 | -1.42 | 24.4 | -1.52 | 33.9 | 12.5 | 28.9 | 40.3 | 36.7 | 34.1 | 28 | 28.6 | 1.48 | -1.52 | 10.9 |
| CC(C)(C)C[C@@H]1N[C@@H](C(=O)N[C@H]2CC[C@H](O)CC2)[C@H](c2cccc(Cl)c2F)[C@]12C(=O)Nc1cc(Cl)ccc12 (top concentration 10000 nM) | 14.3 | -3.34 | -3.94 | 9.06 | 6.46 | -3.84 | 12.2 | -2.64 | 12.5 | 12.9 | 12.4 | 13.2 | 16.9 | 8.96 | -7.64 | -5.24 | 12.4 | -3.94 | 3.56 | -1.94 |
| COc1cc(C)[nH]c(=O)c1CNC(=O)c1c(C)n([C@H](C)C2CCOCC2)c2ccccc12 [CPI-360] (top concentration 10000 nM) | 5.1 | 0 | 0 | 0 | 0 | 0 | 1.3 | 0 | 0 | 0 | 0 | 1.1 | 0 | 0 | 0 | 0 | 1.8 | 0 | 0 | 0 |
